Results as given in PubChem BioAssay (NCI).
Several values for one entry are separate records, joined by “and”; a condition that tells them apart may be missing. Identical values can stand only once.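 Exposure lasted 48 hours, with cells grown in 96-well plates and compounds tested at five concentrations. GI50 = concentration required for 50% inhibition of growth. TGI is the concentration that stops growth completely.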

Assays:
Experiment in all cases: NCI tumour cell line growth inhibition, 48 h
[1] = test system: 786-0 renal
[2] = test system: A498 renal
[3] = test system: A549 NSCLC
[4] = test system: ACHN renal
[5] = test system: BT-549 breast
[6] = test system: CAKI-1 renal
[7] = test system: CCRF-CEM leukemia
[8] = test system: COLO 205 colon
[9] = test system: DU-145 prostate
[10] = test system: EKVX NSCLC
[11] = test system: HCC-2998 colon
[12] = test system: HCT-116 colon
[13] = test system: HCT-15 colon
[14] = test system: HOP-62 NSCLC
[15] = test system: HS 578T breast
[16] = test system: HT29 colon
[17] = test system: IGROV1 ovarian
[18] = test system: KM12 colon
[19] = test system: LOX IMVI melanoma
[20] = test system: M14 melanoma
[21] = test system: MALME-3M melanoma
[22] = test system: MDA-MB-231 breast
[23] = test system: MDA-MB-435
[24] = test system: NCI-H226 lung
[25] = test system: NCI-H23 lung
[26] = test system: NCI-H460 lung
[27] = test system: NCI-H522 lung
[28] = test system: NCI/ADR-RES ovarian
[29] = test system: OVCAR-3 ovarian
[30] = test system: OVCAR-4 ovarian
[31] = test system: OVCAR-5 ovarian
[32] = test system: OVCAR-8 ovarian
[33] = test system: PC-3 prostate
[34] = test system: RPMI-8226 leukemia
[35] = test system: RXF 393 renal
[36] = test system: SF-268 CNS
[37] = test system: SF-295 CNS
[38] = test system: SF-539 CNS
[39] = test system: SK-MEL-2 melanoma
[40] = test system: SK-MEL-28 melanoma
[41] = test system: SK-MEL-5 melanoma
[42] = test system: SK-OV-3 ovarian
[43] = test system: SN12C renal
[44] = test system: SNB-19 CNS
[45] = test system: SNB-75 CNS
[46] = test system: SW-620 colon
[47] = test system: T-47D breast
[48] = test system: TK-10 renal
[49] = test system: U251 CNS
[50] = test system: UACC-257 melanoma
[51] = test system: UACC-62 melanoma
[52] = test system: UO-31 renal
[53] = test system: HL-60(TB) leukemia
[54] = test system: HOP-92 NSCLC
[55] = test system: K-562 leukemia
[56] = test system: MCF7 breast
[57] = test system: MOLT-4 leukemia
[58] = test system: SR leukemia

With `Nc1ccc(C(=O)NN2C(=O)[C@H](Cl)C2c2ccc(Cl)cc2)cc1` (stereo not given in full) the TGI [1] was 2.6 µM, the GI50 [2] was 1.62 µM and the TGI [2] was 3.21 µM. For the same compound, the TGI [3] was 8.49 µM, the TGI [4] was 2.48 µM and the GI50 [5] was 1.95 µM. For the same compound, the TGI [5] was 4.9 µM, the TGI [6] was 2.94 µM and the GI50 [7] was 0.31 µM. It also gave a TGI [7] of 1.41 µM, a TGI [8] of 4.14 µM and a TGI [9] of 4.06 µM. For the same compound, the TGI [10] was 12.8 µM, the TGI [11] was 3.01 µM and the TGI [12] was 0.476 µM. For the same compound, the TGI [13] was 2.79 µM, the TGI [14] was 3.12 µM and the TGI [15] was 4.02 µM. It also gave a TGI [16] of 0.61 µM, a TGI [17] of 4.54 µM and a TGI [18] of 2.99 µM. The GI50 [19] was 0.113 µM, the TGI [19] was 0.233 µM and the TGI [20] was 3.11 µM. For the same compound, the TGI [21] was 4.13 µM, the TGI [22] was 3.55 µM and the TGI [23] was 4.16 µM. The TGI [24] was 2.65 µM, the TGI [25] was 2.34 µM and the TGI [26] was > 100 µM. For the same compound, the TGI [27] was > 100 µM, the TGI [28] was 3.83 µM and the TGI [29] was 2.55 µM. For the same compound, the TGI [30] was > 100 µM, the TGI [31] was 8.23 µM and the TGI [32] was 3.68 µM. The TGI [33] was 3.2 µM, the TGI [34] was 5.32 µM and the TGI [35] was > 100 µM. For the same compound, the TGI [36] was 1.92 µM, the TGI [37] was 9.31 µM and the TGI [38] was 3.6 µM. For the same compound, the TGI [39] was 4.37 µM, the TGI [40] was 1.8 µM and the TGI [41] was 4.27 µM. The TGI [42] was 4.27 µM, the TGI [43] was 2.83 µM and the TGI [44] was 3.69 µM. The TGI [45] was 0.797 µM, the TGI [46] was 4.96 µM and the TGI [47] was 3.88 µM. For the same compound, the TGI [48] was 2.57 µM, the TGI [49] was 2.26 µM and the TGI [50] was 3.63 µM. For the same compound, the TGI [51] was 3.69 µM and the TGI [52] was 4.35 µM.
`COc1ccc2c(c1)NC(=O)CN2c1nc(NC2CC2)nc2ccccc12` gave a GI50 [1] of 0.00905 µM, a TGI [1] of 18.6 µM and a GI50 [2] of 0.00185 µM. For the same compound, the GI50 [3] was 0.00128 µM, the TGI [3] was > 100 µM and the TGI [4] was > 100 µM. For the same compound, the GI50 [5] was 0.00423 µM, the TGI [5] was 3.11 µM and the TGI [6] was 17.9 µM. The GI50 [7] was 0.000385 µM, the TGI [7] was > 100 µM and the GI50 [8] was 0.000395 µM. For the same compound, the TGI [8] was 0.00241 µM, the GI50 [9] was 0.000452 µM and the TGI [9] was 2.83 µM. The TGI [10] was 77.5 µM, the GI50 [11] was 0.00106 µM and the TGI [11] was 1.42 µM. For the same compound, the GI50 [12] was 0.000424 µM, the TGI [12] was 13.3 µM and the GI50 [13] was 0.000556 µM. For the same compound, the TGI [13] was > 100 µM, the GI50 [53] was 0.000503 µM and the TGI [53] was 0.00313 µM. The GI50 [14] was 0.00433 µM, the TGI [14] was 10.5 µM and the GI50 [54] was 2.66 µM. It also gave a TGI [54] of 17.5 µM, a GI50 [15] of 0.00359 µM and a TGI [15] of 25 µM. It also gave a GI50 [16] of 0.000347 µM, a TGI [17] of 6.43 µM and a GI50 [55] of 0.000336 µM. For the same compound, the TGI [55] was > 100 µM, the GI50 [18] was 0.000396 µM and the TGI [18] was > 100 µM. The GI50 [19] was 0.000901 µM, the TGI [19] was 55.5 µM and the GI50 [20] was 0.000367 µM. For the same compound, the TGI [20] was > 100 µM, the GI50 [21] was 2.01 µM and the TGI [21] was 84.7 µM. For the same compound, the GI50 [56] was 0.000386 µM, the TGI [56] was 14.7 µM and the GI50 [22] was 0.000858 µM. The TGI [22] was > 100 µM, the GI50 [57] was 0.00255 µM and the TGI [57] was > 100 µM. The TGI [24] was > 100 µM, the GI50 [25] was 0.00112 µM and the TGI [25] was 16.2 µM. For the same compound, the GI50 [26] was 0.000405 µM, the TGI [26] was > 100 µM and the GI50 [28] was 0.000651 µM. The TGI [28] was 0.00677 µM, the GI50 [29] was 0.000368 µM and the TGI [29] was 0.011 µM. The TGI [30] was > 100 µM, the TGI [31] was > 100 µM and the GI50 [32] was 0.00234 µM. The TGI [32] was 46.9 µM, the GI50 [33] was 0.000563 µM and the TGI [33] was > 100 µM. The GI50 [34] was 0.00182 µM, the TGI [34] was 16.4 µM and the GI50 [35] was 0.00178 µM. It also gave a GI50 [36] of 0.00204 µM, a TGI [36] of 14.4 µM and a GI50 [37] of 0.00211 µM. For the same compound, the TGI [37] was 0.00611 µM and 0.0191 µM, the GI50 [38] was 0.00232 µM and the TGI [38] was 0.00804 µM. The GI50 [40] was 0.847 µM, the TGI [40] was > 100 µM and the GI50 [41] was 0.000552 µM. For the same compound, the GI50 [42] was 0.00182 µM, the GI50 [43] was 0.00491 µM and the TGI [43] was > 100 µM. For the same compound, the GI50 [44] was 0.00154 µM, the TGI [44] was 24.5 µM and the GI50 [45] was 0.00199 µM. For the same compound, the TGI [45] was 18.7 µM, the GI50 [58] was 0.000274 µM and the GI50 [46] was 0.000383 µM. The TGI [46] was > 100 µM, the GI50 [47] was 0.23 µM and the TGI [47] was 7.13 µM. It also gave a TGI [48] of 14.9 µM, a GI50 [49] of 0.00106 µM and a TGI [49] of 18.4 µM. The GI50 [51] was 0.000876 µM, the TGI [51] was 13.2 µM and the GI50 [52] was 0.031 µM. For the same compound, the TGI [52] was 10.2 µM.
